Reference: patent US4260612A, “Antiallergic nitrogen bridge-head compounds” (Chinoin Gyogyszer es Vecyeszeti Termekek Gyara Rt., priority 1977, dated 1981)

What was measured:
allergic reactions = assay: PCA test (antiallergic activity, rats); format: in vivo; settings: for ED50: Rattus norvegicus, iv; for ED50 / percental activity in the PCA test: rats
Experimental: (§1) The tests were carried out by the PCA test-method (Ovary: J. Immun. 81, 355, 1958) and the Church-test (British J. Pharm. 46, 56-66, 1972; Immunology 29, 527-534, 1975) and as comparing substance disodium chromoglycate is used. The test is carried out in rats.

histamine = assay: Released histamine in vitro (antiallergic tests incl. Church-test); format: cell-based, rats; settings: Rattus norvegicus; read-out: Released histamine in vitro, ED50
Experimental: as §1

allergic symptoms = settings: orally; background statement; cited from earlier work

For CC1CC=C(Nc2ccccc2)c2ncc(C(=O)O)c(=O)n21 (stereo not shown) [Example 1, 9-(phenyl-amino)-6-methyl-4-oxo-6,7-dihydro-4H-pyrido[1,2-a]pyrimidine-3-carboxylic acid], the ED50 (allergic reactions) was 1.3 µmol/kg, the “percental activity in the PCA test” value (allergic reactions; single i.v. dose of 10 μmole/kg) was 60% and the “percental activity in the PCA test” value (allergic reactions; single i.v. dose of 320 μmole/kg) was 100%. For the same molecule, the IC50 (histamine) was 12.3 µM.
In the case of O=C(O)c1cc(=O)c2c(OCC(O)COc3cccc4oc(C(=O)O)cc(=O)c34)cccc2o1 [disodium chromoglycolate, reference compound], the ED50 (allergic reactions) is listed as 1 µmol/kg, the “route dependence / oral activity” value (allergic reactions; oral versus i.v., words) is listed as “effective only when administered intravenously” and the “oral activity of antiasthmatic agent” value (allergic symptoms) is listed as “not active orally”.
